ChEMBL document CHEMBL5052840, “Pharmaceutical compounds and therapeutic methods” (2020)
Calls of active or inactive are those of the source. The rule behind the calls is not given here.

Tests used:
[1] = target: T1, Polycomb complex protein BMI-1 (Homo sapiens) (UniProt P35226); test: Inhibition of BMI1 in human Glioblastoma cell 3D spheres at 7 to 10 nM assessed as reduction in BMI1 protein levels measured by Western blotting method; assay type: cell-based; conditions: Glioblastoma cell line, dose 7-10 nM
T1 sequence (whole entry): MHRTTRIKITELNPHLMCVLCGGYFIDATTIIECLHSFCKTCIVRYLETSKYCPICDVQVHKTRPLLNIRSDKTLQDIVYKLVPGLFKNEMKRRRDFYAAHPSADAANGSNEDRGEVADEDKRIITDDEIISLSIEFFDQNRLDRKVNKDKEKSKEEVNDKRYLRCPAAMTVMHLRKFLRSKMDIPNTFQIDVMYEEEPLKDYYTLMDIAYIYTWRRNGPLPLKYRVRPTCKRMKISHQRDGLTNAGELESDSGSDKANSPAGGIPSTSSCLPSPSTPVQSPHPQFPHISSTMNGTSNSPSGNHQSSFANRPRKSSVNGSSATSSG

[2] = target: T1, Polycomb complex protein BMI-1 (Homo sapiens); test: Inhibition of BMI1 in human Glioblastoma cell 3D spheres at 7 to 10 nM assessed as reduction in phospho-RB levels measured by Western blotting method; assay type: cell-based; conditions: Glioblastoma cell line, dose 7-10 nM
[3] = target: T1, Polycomb complex protein BMI-1 (Homo sapiens); test: Inhibition of BMI1 in human Glioblastoma cell 3D spheres at 7 to 10 nM assessed as reduction in STAT1 levels measured by Western blotting method; assay type: cell-based; conditions: Glioblastoma cell line, dose 7-10 nM
[4] = target: T1, Polycomb complex protein BMI-1 (Homo sapiens); test: Inhibition of BMI1 in human Glioblastoma cell 3D spheres at 7 to 10 nM assessed as reduction in BMI1 protein levels measured up to 120 hrs by Western blotting method; assay type: cell-based; conditions: Glioblastoma cell line, dose 7-10 nM, time hrs <=120
[5] = target: T1, Polycomb complex protein BMI-1 (Homo sapiens); test: Inhibition of BMI1 in human Glioblastoma cell 3D spheres at 7 to 10 nM assessed as reduction in PD-L1 protein levels measured up to 120 hrs by Western blotting method; assay type: cell-based; conditions: Glioblastoma cell line, dose 7-10 nM, time hrs <=120
[6] = target: T1, Polycomb complex protein BMI-1 (Homo sapiens); test: Inhibition of BMI1 in human Glioblastoma cell 3D spheres at 7 to 10 nM assessed as reduction in phospho-RB levels measured up to 120 hrs by Western blotting method; assay type: cell-based; conditions: Glioblastoma cell line, dose 7-10 nM, time hrs <=120
[7] = Antiproliferative activity against human Glioblastoma cell after 72 hrs by MTT assay; assay type: functional, cell-based; conditions: Glioblastoma cell line
[8] = Plasma concentration in male C57BL/6 mouse at 2 mg/kg, iv administered as single dose measured at 0.08 hrs measured by LC/MS-MS analysis; assay type: ADME, organism-based
[9] = Plasma concentration in male C57BL/6 mouse at 2 mg/kg, iv administered as single dose measured at 0.35 hrs measured by LC/MS-MS analysis; assay type: ADME, organism-based
[10] = Plasma concentration in male C57BL/6 mouse at 2 mg/kg, iv administered as single dose measured at 1 hr measured by LC/MS-MS analysis; assay type: ADME, organism-based
[11] = Plasma concentration in male C57BL/6 mouse at 10 mg/kg, ip administered as single dose measured at 0.08 hrs measured by LC/MS-MS analysis; assay type: ADME, organism-based
[12] = Plasma concentration in male C57BL/6 mouse at 10 mg/kg, ip administered as single dose measured at 0.35 hrs measured by LC/MS-MS analysis; assay type: ADME, organism-based
[13] = Plasma concentration in male C57BL/6 mouse at 10 mg/kg, ip administered as single dose measured at 1 hr measured by LC/MS-MS analysis; assay type: ADME, organism-based
[14] = Plasma concentration in male C57BL/6 mouse at 10 mg/kg, ip administered as single dose measured at 3 hrs measured by LC/MS-MS analysis; assay type: ADME, organism-based
[15] = Plasma concentration in male C57BL/6 mouse at 10 mg/kg, ip administered as single dose measured at 6 hrs measured by LC/MS-MS analysis; assay type: ADME, organism-based
[16] = Plasma concentration in male C57BL/6 mouse at 10 mg/kg, po administered as single dose measured at 0.08 hrs measured by LC/MS-MS analysis; assay type: ADME, organism-based
[17] = Plasma concentration in male C57BL/6 mouse at 10 mg/kg, po administered as single dose measured at 0.35 hrs measured by LC/MS-MS analysis; assay type: ADME, organism-based
[18] = Plasma concentration in male C57BL/6 mouse at 10 mg/kg, po administered as single dose measured at 1 hr measured by LC/MS-MS analysis; assay type: ADME, organism-based
[19] = Plasma concentration in male C57BL/6 mouse at 10 mg/kg, po administered as single dose measured at 3 hrs measured by LC/MS-MS analysis; assay type: ADME, organism-based
[20] = Plasma concentration in male C57BL/6 mouse at 10 mg/kg, po administered as single dose measured at 6 hrs measured by LC/MS-MS analysis; assay type: ADME, organism-based
[21] = Brain concentration in male C57BL/6 mouse at 2 mg/kg, iv administered as single dose measured at 0.08 hrs measured by LC/MS-MS analysis; assay type: ADME, organism-based; conditions: read-out: Drug uptake
[22] = Brain concentration in male C57BL/6 mouse at 2 mg/kg, iv administered as single dose measured at 0.35 hrs measured by LC/MS-MS analysis; assay type: ADME, organism-based; conditions: read-out: Drug uptake
[23] = Brain concentration in male C57BL/6 mouse at 2 mg/kg, iv administered as single dose measured at 1 hr measured by LC/MS-MS analysis; assay type: ADME, organism-based; conditions: read-out: Drug uptake
[24] = Brain concentration in male C57BL/6 mouse at 10 mg/kg, ip administered as single dose measured at 0.08 hrs measured by LC/MS-MS analysis; assay type: ADME, organism-based; conditions: read-out: Drug uptake
[25] = Brain concentration in male C57BL/6 mouse at 10 mg/kg, ip administered as single dose measured at 0.35 hrs measured by LC/MS-MS analysis; assay type: ADME, organism-based; conditions: read-out: Drug uptake
[26] = Brain concentration in male C57BL/6 mouse at 10 mg/kg, ip administered as single dose measured at 1 hr measured by LC/MS-MS analysis; assay type: ADME, organism-based; conditions: read-out: Drug uptake
[27] = Brain concentration in male C57BL/6 mouse at 10 mg/kg, ip administered as single dose measured at 3 hrs measured by LC/MS-MS analysis; assay type: ADME, organism-based; conditions: read-out: Drug uptake
[28] = Brain concentration in male C57BL/6 mouse at 10 mg/kg, ip administered as single dose measured at 6 hrs measured by LC/MS-MS analysis; assay type: ADME, organism-based; conditions: read-out: Drug uptake
[29] = Brain concentration in male C57BL/6 mouse at 10 mg/kg, po administered as single dose measured at 0.08 hrs measured by LC/MS-MS analysis; assay type: ADME, organism-based; conditions: read-out: Drug uptake
[30] = Brain concentration in male C57BL/6 mouse at 10 mg/kg, po administered as single dose measured at 0.35 hrs measured by LC/MS-MS analysis; assay type: ADME, organism-based; conditions: read-out: Drug uptake
[31] = Brain concentration in male C57BL/6 mouse at 10 mg/kg, po administered as single dose measured at 1 hr measured by LC/MS-MS analysis; assay type: ADME, organism-based; conditions: read-out: Drug uptake
[32] = Brain concentration in male C57BL/6 mouse at 10 mg/kg, po administered as single dose measured at 3 hrs measured by LC/MS-MS analysis; assay type: ADME, organism-based; conditions: read-out: Drug uptake
[33] = Brain concentration in male C57BL/6 mouse at 10 mg/kg, po administered as single dose measured at 6 hrs measured by LC/MS-MS analysis; assay type: ADME, organism-based; conditions: read-out: Drug uptake
[34] = Cmax in male C57BL/6 mouse plasma at 2 mg/kg, iv measured by LC/MS-MS analysis; assay type: ADME, organism-based; set-up: route intravenous, dose 2 mg/kg
[35] = Oral bioavailability in male C57BL/6 mouse plasma at 10 mg/kg measured by LC/MS-MS analysis; assay type: ADME, organism-based
[36] = Cmax in male C57BL/6 mouse brain at 2 mg/kg, iv measured by LC/MS-MS analysis; assay type: ADME, organism-based; set-up: route intravenous, dose 2 mg/kg
[37] = AUClast in male C57BL/6 mouse brain at 2 mg/kg, iv measured by LC/MS-MS analysis; assay type: ADME, organism-based; conditions: in vivo
[38] = AUClast in male C57BL/6 mouse brain at 10 mg/kg, ip measured by LC/MS-MS analysis; assay type: ADME, organism-based; conditions: in vivo
[39] = AUClast in male C57BL/6 mouse brain at 10 mg/kg, po measured by LC/MS-MS analysis; assay type: ADME, organism-based; conditions: in vivo
[40] = AUC (infinity) in male C57BL/6 mouse brain at 10 mg/kg, po measured by LC/MS-MS analysis; assay type: ADME, organism-based; set-up: time infinity, route oral, dose 10 mg/kg; conditions: in vivo

Structure (SMILES): COc1c(F)cc(Nc2nc(-c3c(C)nc4ccccn34)cs2)cc1F.Cl
- inhibition [1]: Active
- inhibition [2]: Active
- inhibition [3]: Active
- inhibition [4]: Active
- inhibition [5]: Active
- inhibition [6]: Active

Structure (SMILES): COc1ccc(Nc2nc(-c3c(C)nc4ccccn34)cs2)cc1
- inhibition ([1]; tested as the 2H-labelled form): Active
- IC50 [7]: 10 nM
- inhibition ([2]; tested as the 2H-labelled form): Active
- inhibition ([3]; tested as the 2H-labelled form): Active

Structure (SMILES): Cl.[2H]C1([2H])Oc2ccc(Nc3nc(-c4c(C)nc5ccccn45)cs3)cc2O1
- concentration at 0.08 h [8]: 256 ng/mL
- concentration at 0.35 h [9]: 44.8 ng/mL
- concentration at 1 h [10]: 9.57 ng/mL
- concentration at 0.08 h [11]: 469 ng/mL
- concentration at 0.35 h [12]: 458 ng/mL
- concentration at 1 h [13]: 232 ng/mL
- concentration at 3 h [14]: 74.9 ng/mL
- concentration at 6 h [15]: 43.7 ng/mL
- concentration at 0.08 h [16]: 207 ng/mL
- concentration at 0.35 h [17]: 163 ng/mL
- concentration at 1 h [18]: 109 ng/mL
- concentration at 3 h [19]: 63.5 ng/mL
- concentration at 6 h [20]: 45.5 ng/mL
- concentration at 0.08 h [21]: 44.9 ng/g
- concentration at 0.35 h [22]: 180 ng/g
- concentration at 1 h [23]: 13.8 ng/g
- concentration at 0.08 h [24]: 288 ng/g
- concentration at 0.35 h [25]: 236 ng/g
- concentration at 1 h [26]: 90.3 ng/g
- concentration at 3 h [27]: 82 ng/g
- concentration at 6 h [28]: 26 ng/g
- concentration at 0.08 h [29]: 67.3 ng/g
- concentration at 0.35 h [30]: 53 ng/g
- concentration at 1 h [31]: 51.9 ng/g
- concentration at 3 h [32]: 20.5 ng/g
- concentration at 6 h [33]: 10.5 ng/g
- Cmax [34]: 430 ng/mL
- bioavailability [35]: 100%
- Cmax [36]: 44.9 ng/g
- AUClast [37]: 97.08 ng·h/g
- AUClast [38]: 360.87 ng·h/g
- AUClast [39]: 171.84 ng·h/g
- AUC [40]: 204.06 ng·h/g

Structure (SMILES): Cc1nc2ccccn2c1-c1csc(Nc2ccc3c(c2)OCO3)n1
- inhibition ([1]; tested as the 2H-labelled form): Active
- inhibition ([2]; tested as the 2H-labelled form): Active
- inhibition ([3]; tested as the 2H-labelled form): Active
